Experimental data taken from patent US9345786B2, “Maytansinoid derivatives” (priority 2013, dated 2016).

Columns and labels:
tubulin = test: HTS-Tubulin Polymerization Assay Kit, tubulin polymerization in vitro; assay type: biochemical; details: 1 μM solution, 10 μL + 100 μL 4 mg/ml tubulin, 37° C., 405 nm; compared with the PBS buffer (FIG. 6)
Procedure: According to the instruction of kit, pre-warm the 96-well plate to 37° C. for 30 min prior to starting the assay. At the same time, the spectrophotometer (SpectraMax, Molecular Devices, USA) was set as follow: wavelength, 405 nm; temperature, 37° C.; Kinetic, 31 cycles of 1 reading per minute. Make cold G-PEM buffer (990 μL General Tubulin Buffer+10 μL GTP Stock) and keep it on ice. […] Immediately place the plate into the spectrophotometer and start recording using the kinetic setup described above. […] Nocodazole, the tubulin polymerization inhibitor, was set as a negative control. The metabolite Cys-3AA-MDC was prepared by reaction of 3AA-MDC with cysteine under the base DIEA in CH2Cl2. LC-MS (M+H^+) calc.: 964.5. found: 964.2. Rt: 12.97 min. The metabolite Lys-MCC-MDC was prepared by reaction of SMCC-MDC with lysine under the base DIEA in DMF. LC-MS (M+H^+) calc.: 1103.7. found: 1103.2. Rt: 13.00 and 13.18 min.

[1] = tested on: multiple cancer cell lines; details: cited from earlier work
[2] = tested on: human acute lymphoblastic leukemia line C.E.M.; details: cited from earlier work
[3] = tested on: Lewis lung carcinoma and B-16 melanocarcinoma solid murine tumor models; details: mouse, in vivo; cited from earlier work

| Compound | inhibition of tubulin polymerization (tubulin) | also measured |
| --- | --- | --- |
| COc1cc2cc(c1Cl)N(C)C(=O)C[C@H](OC(=O)[C@H](C)N(C)C(=O)CCCCCN1C(=O)C=CC1=O)[C@]1(C)OC1[C@H](C)[C@@H]1C[C@@](O)(NC(=O)O1)[C@H](OC)/C=C/C=C(\C)C2 (stereo partly drawn) [3AA-MDC, N2′-deacetyl-N2′-(6-maleimido-1-oxo-hexyl)maytansine] | more significantly inhibited the tubulin polymerization |  |
| COc1cc2cc(c1Cl)N(C)C(=O)C[C@H](OC(=O)C(C)C)[C@]1(C)O[C@@H]1[C@H](C)[C@@H]1C[C@@](O)(NC(=O)O1)[C@H](OC)/C=C/C=C(\C)C2 [Ansamitocin P3] |  | efficacy against cancer cell lines [1]: effective against multiple cancer cell lines |
| COc1cc2cc(c1Cl)N(C)C(=O)C[C@H](OC(=O)[C@H](C)N(C)C(=O)CCSC1CC(=O)N(CC3CCC(C(=O)NCCCC[C@H](N)C(=O)O)CC3)C1=O)[C@]1(C)O[C@H]1[C@H](C)[C@@H]1C[C@@](O)(NC(=O)O1)[C@H](OC)/C=C/C=C(\C)C2 (stereo partly drawn) [Lys-mcc-MDC] | more significantly inhibited the tubulin polymerization |  |
| COc1cc2cc(c1Cl)N(C)C(=O)C[C@H](OC(=O)[C@H](C)N(C)C(C)=O)[C@]1(C)O[C@H]1[C@H](C)[C@@H]1C[C@@](O)(NC(=O)O1)[C@H](OC)/C=C/C=C(\C)C2 [Maytansine] |  | inhibitory concentration, as low as [2]: ≥ 10^−7 μg/mL; inhibitory activity against tumors [3]: significant inhibitory activity |
| CN[C@@H](C)C(=O)OC1CC(=O)N(C)c2cc(cc(OC)c2Cl)C/C(C)=C/C=C/C(OC)C2(O)CC(OC(=O)N2)C(C)C2OC12C (stereo partly drawn) [Cys-3AA-MDC] | more significantly inhibited the tubulin polymerization |  |
